Measured values reported in the supplement of paper PMC10307832.

Assays:
Assay in all cases: relative viability (nuclei count vs DMSO), 5 days (fraction); higher = more cells survive
IMD-0354 + Pemetrexed = compound: O=C(Nc1cc(C(F)(F)F)cc(C(F)(F)F)c1)c1cc(Cl)ccc1O [IMD-0354] + Nc1nc2[nH]cc(CCc3ccc(C(=O)N[C@@H](CCC(=O)O)C(=O)O)cc3)c2c(=O)[nH]1 [Pemetrexed] (partner 0.2 µM)
Method in brief: (§1)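 A single step with final 0.05% Triton X-100, 1% formaldehyde and 1 ug/ml Hoechst fixed the cells and stained nuclei 5 days after treatment. Lung cancer cell lines in 1536-well plates had been treated by pin tool the day after seeding with one drug alone or a fixed anchor-drug dose plus five library-drug doses (not always all listed) in √10 steps, and nuclei were counted on 4× images. Relative viability is the ratio of nuclei in treated wells to nuclei in vehicle wells, taken as the median of duplicate plates.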

CX-5461 + Dasatinib = compound: Cc1cnc(CNC(=O)c2c(=O)c3ccc(N4CCCN(C)CC4)nc3n3c2sc2ccccc23)cn1 [CX-5461] + Cc1nc(Nc2ncc(C(=O)Nc3c(C)cccc3Cl)s2)cc(N2CCN(CCO)CC2)n1 [Dasatinib] (partner 0.075 µM)
Method in brief: as §1

IMD-0354 + Tozasertib = compound: O=C(Nc1cc(C(F)(F)F)cc(C(F)(F)F)c1)c1cc(Cl)ccc1O [IMD-0354] + Cc1cc(Nc2cc(N3CCN(C)CC3)nc(Sc3ccc(NC(=O)C4CC4)cc3)n2)n[nH]1 [Tozasertib] (partner 0.1 µM)
Method in brief: as §1

IMD-0354 + Bortezomib = compound: O=C(Nc1cc(C(F)(F)F)cc(C(F)(F)F)c1)c1cc(Cl)ccc1O [IMD-0354] + CC(C)C[C@H](NC(=O)[C@H](Cc1ccccc1)NC(=O)c1cnccn1)B(O)O [Bortezomib] (partner 0.002 µM)
Method in brief: as §1

Cell Line | relative viability (IMD-0354 + Pemetrexed; first compound 0.04 µM) | relative viability (IMD-0354 + Pemetrexed; first compound 0.1265 µM) | relative viability (IMD-0354 + Pemetrexed; first compound 0.4 µM) | relative viability (IMD-0354 + Pemetrexed; first compound 1.265 µM) | relative viability (IMD-0354 + Pemetrexed; first compound 4 µM) | relative viability (CX-5461 + Dasatinib; first compound 0.01 µM) | relative viability (CX-5461 + Dasatinib; first compound 0.03162 µM) | relative viability (CX-5461 + Dasatinib; first compound 0.1 µM) | relative viability (CX-5461 + Dasatinib; first compound 0.3162 µM) | relative viability (CX-5461 + Dasatinib; first compound 1 µM) | relative viability (IMD-0354 + Tozasertib; first compound 0.04 µM) | relative viability (IMD-0354 + Tozasertib; first compound 0.1265 µM) | relative viability (IMD-0354 + Tozasertib; first compound 0.4 µM) | relative viability (IMD-0354 + Tozasertib; first compound 1.265 µM) | relative viability (IMD-0354 + Tozasertib; first compound 4 µM) | relative viability (IMD-0354 + Bortezomib; first compound 0.04 µM) | relative viability (IMD-0354 + Bortezomib; first compound 0.1265 µM) | relative viability (IMD-0354 + Bortezomib; first compound 0.4 µM) | relative viability (IMD-0354 + Bortezomib; first compound 1.265 µM) | relative viability (IMD-0354 + Bortezomib; first compound 4 µM)
NCI-H1666 | 0.905 | 1 | 0.708 | 0.832 | 0.824 | 0.786 | 0.802 | 0.597 | 0.757 | 0.591 | 0.672 | 0.587 | 0.488 | 0.369 | 0.309 | 0.667 | 0.804 | 0.641 | 0.257 | 0.169
NCI-H1734 | 0.449 | 0.458 | 0.369 | 0.23 | 0.129 | 0.472 | 0.543 | 0.471 | 0.405 | 0.25 | 0.267 | 0.267 | 0.265 | 0.231 | 0.117 | 1.22 | 1.17 | 0.385 | 0.211 | 0.259
NCI-H1755 | 0.458 | 0.407 | 0.387 | 0.375 | 0.291 | 0.412 | 0.476 | 0.461 | 0.422 | 0.34 | 0.566 | 0.627 | 0.435 | 0.407 | 0.294 | 1.16 | 1.07 | 0.454 | 0.358 | 0.177
NCI-H1915 | 0.557 | 0.469 | 0.357 | 0.399 | 0.163 | 0.292 | 0.358 | 0.301 | 0.299 | 0.297 | 0.482 | 0.412 | 0.299 | 0.268 | 0.175 | 0.833 | 1 | 0.396 | 0.738 | 0.183
NCI-H1975 | 0.292 | 0.311 | 0.234 | 0.175 | 0.157 | 0.367 | 0.388 | 0.302 | 0.441 | 0.2 | 0.814 | 0.864 | 0.399 | 0.111 | 0.148 | 0.371 | 0.442 | 0.345 | 0.201 | 0.213
NCI-H1993 | 0.578 | 0.565 | 0.518 | 0.344 | 0.412 | 0.657 | 0.588 | 0.499 | 0.621 | 0.473 | 0.626 | 0.623 | 0.487 | 0.452 | 0.479 | 1.03 | 1.28 | 0.578 | 0.506 | 0.517
NCI-H2009 | 0.934 | 1 | 0.722 | 0.324 | 0.124 | 0.341 | 0.324 | 0.305 | 0.346 | 0.262 | 0.877 | 0.752 | 0.51 | 0.24 | 0.139 | 0.973 | 0.878 | 0.771 | 0.105 | 0.0845
NCI-H2023 | 0.217 | 0.212 | 0.118 | 0.0926 | 0.103 | 0.667 | 0.603 | 0.245 | 0.497 | 0.0768 | 0.338 | 0.296 | 0.23 | 0.126 | 0.117 | 1.02 | 0.97 | 0.843 | 0.114 | 0.081
